Assays:
[1] = Acute toxicity, mortality within 24 hours, intraperitoneal; conditions: mouse, in vivo, ip, mice, dose of 300 mg/kg
Experimental: The products to be studied were administered intraperitoneally in increasing doses to groups of 10 mice (CD1, Charles River; 20±1 g).
From the results obtained, the 50% lethal dose, i.e. the dose causing the death of 50% of the animals, was determined for each of the products studied.

[2] = system: ptosis induced by reserpine; assay: Antagonism of the ptosis induced by reserpine; assay type: in vivo, female CD1 mice; conditions: Mus musculus, ip; mice, intraperitoneal; reserpine 2 mg/kg i.v. simultaneously; read at 1 hour; read-out: ED50 (dose which completely blocks the ptosis induced by reserpine in 50% of the animals)
Experimental: This test, described by GOURET et al. (Journal de Pharmacologie, Paris, 8, 333-350, 1977), was performed on female CD1 mice (Charles River) weighing 20±1 g. Reserpine causes ptosis 1 hour after intravenous administration; the majority of antidepressants oppose this ptosis. The following protocol was chosen. The substances to be studied were administered intraperitoneally and the reserpine was simultaneously administered intravenously at a dose of 2 mg/kg. […] This test was performed on groups of 10 mice; the results are expressed as ED50 (50% effective dose), i.e. the dose which completely blocks the ptosis induced by reserpine in 50% of the animals.

[3] = system: trembling induced by L-5-HTP; assay: Potentiation of the trembling induced by L-5-HTP; assay type: in vivo, female CD1 mice; conditions: Mus musculus, ip; mice, intraperitoneal, 1 hour before L-5-HTP 200 mg/kg i.p.; observed 20 minutes; read-out: ED50 (dose which induces trembling in 50% of the animals treated)
Text: Its injection into mice causes a behavioral syndrome characterized in particular by violent trembling. Antidepressants which inhibit the recapture of serotonin or monoamine oxidase inhibitors (MAOI) potentiate this effect of […], 1959). The protocol described by […] (Biochem. Pharmacol., 2, 290-298, 1959) was used. […] The results are expressed as ED50, i.e. the dose which induces trembling in 50% of the animals treated.

dopaminergic receptors = assay: Rotation behavior, unilateral striatal lesion by 6-hydroxydopamine; assay type: in vivo, female CD1 mice; conditions: Mus musculus, ip; mice, intraperitoneal, 1 hour after administration, rotations over 2 minutes; read-out: MED (minimum dose necessary to cause a significant reduction in the number of ipsilateral rotations)
Experimental: This test is the one described by PROTAIS et al. (Journal de Pharmacologie,Paris, 7, 251-255, 1976). Female mice (Charles River, CD1) weighing from 25 to 30 g were subjected beforehand to a unilateral lesion of the striatum by the stereotaxic injection of 6-hydroxydopamine at a rate of 8 μg per animal. One week after this operation, the products were administered intraperitoneally to groups of 7 mice. 1 hour after administration of the product, the number of rotations was evaluated for 2 minutes. The rotations on the same side as the lesion were counted as positive and those on the opposite side as negative. The algebraic sum of the rotations for one group of treated animals was compared with that of the group of control animals which had only received the vehicle (aqueous solution of gum). In this test, stimulants of the dopaminergic receptors (apomorphine type) reduce the spontaneous rotations whereas indirect dopaminomimetic agents (amphetamine type) increase them. The results are expressed as MED (minimum effective dose), i.e. the minimum dose necessary to cause a significant reduction (Student's t-test) in the number of ipsilateral rotations spontaneously observed in the control animals.

Compound	mortality at 24 h [1]	ED50 [2]	ED50 [3]	minimal effective dose (dopaminergic receptors)
CN(C)CCNc1nnc(-c2ccccc2)s1 [Compound A, reference compound]	70%	32 mg/kg		
Clc1ccccc1-c1nnc(NCCN2CCOCC2)s1 [SR 95397 A]		18 mg/kg	14.5 mg/kg	0.1 mg/kg
FC(F)(F)c1cccc(-c2nnc(NCCN3CCOCC3)s2)c1 [SR 43531 A]			7.8 mg/kg	
COc1ccc(-c2nnc(NCCN3CCOCC3)s2)cc1OC [SR 43295, 2-(2-morpholinoethylamino)-5-(3,4-dimethoxyphenyl)-1,3,4-thiadiazole]				0.1 mg/kg
CCN(CC)CCNc1nnc(-c2ccccc2)s1 [Compound B, reference compound]	90%	43 mg/kg		
c1ccc(-c2ccc(-c3nnc(NCCN4CCOCC4)s3)cc2)cc1 [SR 43294]				0.1 mg/kg
C1CCC(c2nnc(NCCN3CCOCC3)s2)C1 [SR 43057 A]		23 mg/kg		
C1CCC(c2nnc(NCCN3CCOCC3)s2)CC1 [SR 43058, 2-(2-Morpholinoethylamino)-5-cyclohexyl-1,3,4-thiadiazole]		22 mg/kg	17 mg/kg	
O=[N+]([O-])c1ccc(-c2nnc(NCCN3CCOCC3)s2)cc1 [SR 43530]			6.2 mg/kg	0.1 mg/kg
FC(F)(F)c1ccc(-c2nnc(NCCN3CCOCC3)s2)cc1 [SR 43604]				0.1 mg/kg
Clc1ccc(-c2nnc(NCCN3CCOCC3)s2)cc1 [SR 95340 A]		8.8 mg/kg	3.6 mg/kg	
c1ccc2c(-c3nnc(NCCN4CCOCC4)s3)cccc2c1 [SR 95559 A]				0.1 mg/kg
COc1ccc(-c2nnc(NCCN3CCOCC3)s2)cc1 [SR 43198, 2-(2-morpholinoethylamino)-5-(4-methoxyphenyl)-1,3,4-thiadiazole]			7 mg/kg	
Cl.Cl.Oc1ccc(-c2nnc(NCCN3CCOCC3)s2)cc1O [SR 43296 A, 2-(2-Morpholinoethylamino)-5-(3,4-dihydroxyphenyl)-1,3,4-thiadiazole dihydrochloride]				0.1 mg/kg
Cl.Cl.c1ccc(-c2nnc(NCCN3CCOCC3)s2)cc1 [SR 95311 A, 2-(2-Morpholinoethylamino)-5-phenyl-1,3,4-thiadiazole dihydrochloride]		4.6 mg/kg	6 mg/kg	0.1 mg/kg
Cl.Cl.Oc1ccc(-c2nnc(NCCN3CCOCC3)s2)cc1 [SR 43202 A, 2-(2-Morpholinoethylamino)-5-(4-hydroxyphenyl)-1,3,4-thiadiazole dihydrochloride]				0.1 mg/kg
Clc1cccc(-c2nnc(NCCN3CCOCC3)s2)c1 [SR 95396 A]		11.3 mg/kg		0.1 mg/kg
